{"source": "patent US11974992B2", "about": "“Use of serotonin 5-HT1A receptor agonists to treat diseases associated with sudden unexpected death in epilepsy” (Neurolixis, priority 2022, dated 2024)", "key": {"[1]": {"test_system": "mouse model of the Rett syndrome", "settings": "cited from earlier work"}, "FMR1 knock-out (KO) mice": {"test_system": "FMR1 knock-out (KO) mice", "assay": "Audiogenic tonic-clonic seizures (TCS) in FMR1 transgenic mice", "format": "in vivo, mouse", "protocol": "Audiogenic Tonic-Clonic Seizures (TCS) in FMR1 Transgenic Mice\nFMR1 knock-out (KO) mice were bred and weaned at postnatal day 21 (P21), and all mice were tested between P21 to P23. NLX-101 was administered at doses of 0.6, 1.2, 1.8 and 2.4 mg/kg i.p. Control FMR1 KO mice received saline. NLX-101 or saline was injected 10 min before subjecting the mice to the auditory stimulus.\nTo differentiate each mouse for post-hoc video analysis, mice were color coded prior to drug or saline administration. Mice (up to 4/cage) were then put in a cage with a lid; after 10 min, a speaker was placed on top of the lid, and the cage placed in a sound attenuation booth (Gretch-Ken Inc., OR); the auditory stimulus was a continuously alternating up and down frequency modulated sweep with frequencies between 2-8 kHz, presented at an intensity between 105-110 dB for 15 min. The procedure lasted a total of 20 min starting with 5 min of habituation (without a sound stimulus). The full 20-min procedure was video recorded for off-line analysis.\nThe typical behavior of FMR1 knock-out mice subjected to loud audio stimulus includes tonic-clonic seizures (TCS: the mouse lays on the cage bottom with hindlimb extension), and death by respiratory arrest (manifested by a deep respiratory gasp and relaxation of pinna).\nThe latency time (from the stimulus onset) to the occurrence of TCS and death were recorded with a stopwatch (precision: 1 sec). Survival analysis was used to analyze the probability of TCS or death by log-rank test."}, "wild-type male CF-1 mice": {"test_system": "wild-type male CF-1 mice", "assay": "Seizures induced by corneal electrical stimulation (CES, 6 Hz, 44 mA)", "format": "in vivo, mouse", "protocol": "Seizures Induced by Corneal Electrical Stimulation (CES) in Wild-Type Mice\nExperiments were carried out in accordance with the National Institute of Neurological Disorders and Stroke (NINDS) Epilepsy Therapy Screening Program (https://panache.ninds.nih.gov/TestDescription/Test6HZ). The CES test was carried out using wild-type male CF-1 mice. Seizures were induced by a low frequency (6 Hz, 0.2 msec rectangular pulse), long-duration (3 sec), 44 mA current (double the current producing seizures in 97% of animals) delivered through corneal electrodes (Barton M E, Klein B D, Wolf H H, White H S. Pharmacological characterization of the 6 Hz psychomotor seizure model of partial epilepsy. Epilepsy Res. 2001; 47:217-27). A drop of 0.5% tetracaine hydrochloride in 0.9% saline (anesthetic/electrolyte) solution was applied to the eyes just prior to the placement of corneal electrodes. The seizure in mice is characterized by an initial momentary stun followed immediately by jaw clonus, forelimb clonus, twitching of the vibrissae, and “Straub tail”. Animals not displaying this behavior within the one-minute observation period are considered “protected” from seizures.\nTesting for anti-seizure activity in the CES model was performed with 4 male mice/dose/time point. […] of NLX-101 (0.02, 0.06, 0.5, 1 and 2 mg/kg i.p.) and two timepoints (30 and 120 min after drug administration) were tested."}, "wild-type male mice": {"test_system": "wild-type male mice", "assay": "Maximal electroshock seizure (MES) test", "format": "in vivo, mouse", "settings": "0.02 to 2 mg/kg i.p., 30 and 120 min post-injection", "protocol": "Seizures Induced in the Maximal Electroshock Seizure (MES) Test\nExperiments were carried out in accordance with the National Institute of Neurological Disorders and Stroke (NINDS) Epilepsy Therapy Screening Program (https://panache.ninds.nih.gov/TestDescription/TestMES). The MES test was carried out using wild-type male mice. MES is a model for generalized tonic-clonic seizures and provides an indication of a compound's ability to prevent seizure spread when all neuronal circuits in the brain are maximally active (White H S, Johnson M, Wolf H H, Kupferberg H J. The early identification of anticonvulsant activity: role of the maximal electroshock and subcutaneous pentylenetetrazol seizure models. Ital J Neurol sci. 1995; 16:73-7). These seizures are highly reproducible and are electrophysiologically consistent with human seizures. Seizures were induced by a high frequency (60 Hz) of alternating current at 50 mA over a short duration (0.2 sec) delivered through corneal electrodes. Prior to stimulation, corneas were irrigated with 0.5% tetracaine hydrochloride for local anesthesia and 0.9% saline to improve electrical conductivity. Seizures induced by MES are characterized by tonic extension of forelimbs and hindlimbs that is followed by brief episodes of clonic activity of the forelimbs and hindlimbs. […]"}, "humans": {"test_system": "humans", "settings": "cited from earlier work"}}, "note": "Entries after “also recorded” stand apart in the source; their conditions may differ.", "data": [{"smiles": "Cc1cnc(CNCC2(F)CCN(C(=O)c3ccc(F)c(Cl)c3)CC2)nc1", "note": "[NLX-101]", "values": [{"measurement": "respiratory abnormalities", "setting": "[1]", "result": "improves the respiratory abnormalities"}, {"measurement": "number of FMR1 knock-out mice that died", "setting": "FMR1 knock-out (KO) mice; 0.6-2.4 mg/kg i.p., 10 min before auditory stimulus, significant effects at 1.2, 1.8 and 2.4 mg/kg", "result": "dose-dependently reduced"}, {"measurement": "percentage of FMR1 knock-out mice displaying tonic-clonic seizures", "setting": "FMR1 knock-out (KO) mice; 0.6-2.4 mg/kg i.p., 10 min before auditory stimulus, significant effects at 1.8 and 2.4 mg/kg", "result": "potently and efficaciously reduced seizures; also recorded: dose-dependently reduced"}, {"measurement": "mice protected from death", "setting": "FMR1 knock-out (KO) mice; audiogenic tonic-clonic seizure model in FMR1 knock-out mice", "result": "over 75%"}, {"measurement": "anti-seizure activity in the CES test", "setting": "wild-type male CF-1 mice; 0.02 to 2 mg/kg i.p., 30 and 120 min", "result": "did not exhibit any anti-seizure activity"}, {"measurement": "mice with reduced seizure occurrence in the CES test", "setting": "wild-type male CF-1 mice; highest dose tested (2 mg/kg i.p.), 30 min post injection", "result": "1 out of 4"}, {"measurement": "occurrence of seizures in the MES test", "setting": "wild-type male mice", "result": "did not exhibit any anti-seizure activity; also recorded: did not affect the occurrence of seizures"}]}, {"smiles": "N#Cc1ccc2[nH]cc(CCCCN3CCN(c4ccc5oc(C(N)=O)cc5c4)CC3)c2c1", "note": "[vilazodone]", "values": [{"measurement": "seizures in humans", "setting": "humans", "result": "induces seizures"}]}]}
